# Source: patent publication US6849632B2, “Heteroaryl alkyl piperazine derivatives” (CV Therapeutics, Inc., priority 2000, dated 2005)
# Where “and” joins values, the source holds several entries; their conditions need not be identical. Equal entries are not always repeated. Where two headings read alike, the source gives them in different places.
# System: mitochondrial fatty acid oxidation using palmitoyl CoA as substrate
# Experiment: Palmitoyl CoA oxidation in isolated rat heart mitochondria
# Format: biochemical
# Settings: for Inhibition of mitochondrial fatty acid oxidation using palmitoyl CoA as substrate - % of Control, 100 μm (%): 100 μm compound; for Inhibition of mitochondrial fatty acid oxidation using palmitoyl CoA as substrate - % of Control, 100 μm (%) / Inhibition of mitochondrial fatty acid oxidation using palmitoyl CoA as substrate - % of Control, 50 μm (%): 15 min at 30° C.; for Inhibition of mitochondrial fatty acid oxidation using palmitoyl CoA as substrate - % of Control, 50 μm (%): 50 μm compound
# Description: Rat heart mitochondria were isolated by the method of Nedergard and Cannon (Methods in Enzymol. 55, 3, 1979). Palmitoyl CoA oxidation—The Palmityl CoA oxidation was carried out in a total volume of 100 micro liters containing the following agents: 110 mM KCl, 33 mM Tris buffer at pH 8, 2 mM KPi, 2 mM MgCl2, 0.1 mM EDTA, 14.7 microM defatted BSA, 0.5 mM malic acid, 13 mM carnitine, 1 mM ADP, 52 micrograms of mitochondrial protein, and 16 microM 1-C14 palmitoyl CoA (Sp. Activity 60 mCi/mmole; 20 microCi/ml, using 5 microliters per assay). The compounds of this invention were added in a DMSO solution at the following concentrations: 100 microM, and 50 microM. In each assay, a DMSO control was used. After 15 min at 30° C., the enzymatic reaction was centrifuged (20,000 g for 1 min), and 70 microliters of the supernatant was added to an activated reverse phase silicic acid column (approximately 0.5 ml of silicic acid). The column was eluted with 2 ml of water, and 0.5 ml of the eluent was used for scintillation counting to determine the amount of C^14 trapped as C^14 bicarbonate ion.
# [1] = Table IA, read-out: Effect on Palmitoyl CoA Oxidation (IC50)
IC50 [1],Molecule,further results
0.2 µM,"Cc1nc2cc(OC[C@@H](O)CN3CCN(CC(=O)Nc4c(C)cccc4C)C[C@@H]3C)ccc2s1 [2-{(3S)-4-[(2S)-2-hydroxy-3-(2-methylbenzothiazol-5-yloxy)propyl]-3-methylpiperazinyl}-N-(2,6-dimethylphenyl)acetamide]",–
–,"Cc1cccc(C)c1NC(=O)CN1CCN(CC(O)CNc2nc3ccccc3o2)CC1 (stereo not shown) [Compound 82, 2-{4-[3-(benzoxazol-2-ylamino)-2-hydroxypropyl]piperazinyl}-N-(2,6-dimethylphenyl)acetamide]","Inhibition of mitochondrial fatty acid oxidation using palmitoyl CoA as substrate - % of Control, 100 μm (%): 22%"
13 µM,"Cc1cccc(C)c1NC(=O)CN1CCN(C[C@H](O)COc2ccc3oc(-c4cccc(C(F)(F)F)c4)nc3c2)CC1 [2-[4-((2S)-2-hydroxy-3-{2-[3-(trifluoromethyl)phenyl]benzoxazol-5-yloxy}propyl)piperazinyl]-N-(2,6-dimethylphenyl)acetamide]",–
0.39 µM,2-{4-[(2S)-2-hydroxy-3-(2-methylbenzothiazol-5-yloxy)propyl]piperazinyl}-N-(3-phenoxyphenyl)acetamide,–
19 µM,"2-((3S)-4-{(2S)-3-[2-(2-chlorophenyl)benzoxazol-5-yloxy]-2-hydroxy-propyl}-3-methylpiperazinyl)-N-(2,6-dimethylphenyl)acetamide",–
–,Cc1cccc(C)c1NC(=O)CN1CCN(CC(O)COc2cccc3nc(-c4ccccc4)sc23)CC1 (stereo not shown) [Compound 62],"Inhibition of mitochondrial fatty acid oxidation using palmitoyl CoA as substrate - % of Control, 50 μm (%): 62%"
16 µM,"2-((3S)-4-{(2S)-3-[2-(3-fluorophenyl)benzoxazol-5-yloxy]-2-hydroxy-propyl}-3-methylpiperazinyl)-N-(2,6-dimethylphenyl)acetamide",–
–,"Cc1cccc(C)c1NC(=O)CN1CCN(CC(O)COc2ccc3oc(-c4ccccc4)nc3c2)CC1 (stereo not shown) [Compound 60, N-(2,6-dimethylphenyl)-2-{4-[2-hydroxy-3-(2-phenyl-benzoxazol-5-yloxy)-propyl)-piperazin-1-yl}acetamide]","Inhibition of mitochondrial fatty acid oxidation using palmitoyl CoA as substrate - % of Control, 50 μm (%): 61%"
6.5 µM,"2-{4-[(2S)-3-(2-cyclohexylbenzothiazol-5-yloxy)-2-hydroxypropyl]piperazinyl}-N-(2,6-dimethylphenyl)acetamide",–
2 µM,"Cc1nc2cc(OC[C@@H](O)CN3CCN(CC(=O)Nc4c(C)cccc4C)C[C@H]3C)ccc2s1 [2-{(3R)-4-[(2S)-2-hydroxy-3-(2-methylbenzothiazol-5-yloxy)propyl]-3-methylpiperazinyl}-N-(2,6-dimethylphenyl)acetamide]",–
12.9 µM,2-(4-{(2S)-3-[2-(4-chlorophenyl)benzoxazol-5-yloxy]-2-hydroxypropyl}piperazinyl)-N-[4-(trifluoromethyl)phenyl]acetamide,–
26 µM,2-{4-[(2S)-2-hydroxy-3-(2-phenylbenzoxazol-5-yloxy)propyl]piperazinyl}-N-(3-phenylphenyl)acetamide,–
1.7 µM,2-{4-[(2S)-2-hydroxy-3-(2-methylbenzothiazol-5-yloxy)propyl]piperazinyl}-N-(4-methylphenyl)acetamide,–
–,"Cc1cccc(C)c1NC(=O)CN1CCN(CC(O)COc2cccnc2)CC1 (stereo not shown) [Compound 72, N-(2,6-dimethylphenyl)-2-{4-[2-hydroxy-3-(pyridin-3-yloxy)-propyl]-piperazin-1-yl}acetamide]","Inhibition of mitochondrial fatty acid oxidation using palmitoyl CoA as substrate - % of Control, 100 μm (%): 8%"
0.33 µM,2-{4-[(2S)-2-hydroxy-3-(2-methylbenzothiazol--yloxy)propyl]piperazinyl}-N-(4-phenoxyphenyl)acetamide,–
12 µM and 20 µM,2-(4-{(2S)-3-[2-(4-chlorophenyl)benzoxazol-5-yloxy]-2-hydroxypropyl}piperazinyl)-N-[2-(hydroxymethyl)-6-methylphenyl]acetamide,–

IC50 [1],Molecule,further results
0.45 µM,"2-{4-[(2R)-2-hydroxy-3-(2-methylbenzothiazol-5-yloxy)propyl]-3,3-dimethylpiperazinyl}-N-(2,6-dimethylphenyl)acetamide",–
2 µM,2-{4-[(2S)-2-hydroxy-3-(2-methylbenzothiazol-5-yloxy)propyl]piperazinyl}-N-[4-(4-chlorophenoxy)phenyl]acetamide,–
5 µM,"Cc1nc2cc(OC[C@H](O)CN3CCN(CC(=O)Nc4c(C)cccc4C)C[C@@H]3C)ccc2s1 [2-{4-[(2R)-2-hydroxy-3-(2-methylbenzothiazol-5-yloxy)propyl](3S)-3-methylpiperazinyl}-N-(2,6-dimethylphenyl)acetamide]",–
0.46 µM,2-{4-[(2S)-2-hydroxy-3-(2-methylbenzothiazol-5-yloxy)propyl]piperazinyl}-N-(4-phenylphenyl)acetamide,–
–,"Cc1cccc(C)c1NC(=O)CN1CCN(CC(O)COc2ccc3oc(-c4ccc(C(F)(F)F)cc4)nc3c2)CC1 (stereo not shown) [Compound 68, N-(2,6-dimethylphenyl)-2-(4-{2-hydroxy-3-[2-(4-trifluoromethyl-phenyl)benzoxazol-5-yloxy]-propyl}-piperazin-1-yl)acetamide]","Inhibition of mitochondrial fatty acid oxidation using palmitoyl CoA as substrate - % of Control, 50 μm (%): 68%"
0.18 µM,Cc1nc2cc(OC[C@@H](O)CN3CCN(CC(=O)Nc4cccc(-c5ccccc5)c4)CC3)ccc2s1 [2-{4-[(2S)-2-hydroxy-3-(2-methylbenzothiazol-5-yloxy)propyl]piperazinyl}-N-(3-phenylphenyl)acetamide],–
–,"Cc1nc2ccc(OCC(O)CN3CCN(CC(=O)Nc4c(C)cccc4C)CC3)cc2s1 (stereo not shown) [Compound 49, N-(2,6-dimethylphenyl)-2-{4-[2-hydroxy-3-(2-methyl-benzothiazol-6-yloxy)-propyl]-piperazin-1-yl}aceamide]","Inhibition of mitochondrial fatty acid oxidation using palmitoyl CoA as substrate - % of Control, 100 μm (%): 3%"
7.6 µM,2-{4-[(2S)-2-hydroxy-3-(2-methylbenzothiazol-5-yloxy)propyl]piperazinyl}-N-[4-(trifluoromethyl)phenyl]acetamide,–
11.3 µM,2-{4-[(2S)-2-hydroxy-3-(2-phenylbenzoxazol-5-yloxy)propyl]piperazinyl}-N-(4-phenoxyphenyl)acetamide,–
–,"Cc1nc2cc(OCC(O)CN3CCN(CC(=O)Nc4ccc(O)cc4)CC3)ccc2s1 (stereo not shown) [Compound 54, 2-{4-[2-hydroxy-3-(2-methyl-benzothiazol-5-yloxy)-propyl]-piperazin-1-yl}-N-(4-hydroxy-phenyl)acetamide]","Inhibition of mitochondrial fatty acid oxidation using palmitoyl CoA as substrate - % of Control, 100 μm (%): 81%; IC50 (Table 1, read-out: IC50 (μm), inhibition of mitochondrial fatty acid oxidation using palmitoyl CoA as substrate): ~8 µM"
–,"Cc1cccc(C)c1NC(=O)CN1CCN(CC(O)CNc2nc3ccccc3s2)CC1 (stereo not shown) [Compound 39, 2-{4-[3-(benzothiazol-2-ylamino)-2-hydroxypropyl]piperazinyl}-N-(2,6-dimethylphenyl)acetamide]","Inhibition of mitochondrial fatty acid oxidation using palmitoyl CoA as substrate - % of Control, 100 μm (%): 27%"
0.41 µM,2-{(3S)-4-[(2S)-2-hydroxy-3-(2-methylbenzothiazol-5-yloxy)propyl]-3-methylpiperazinyl}-N-(4-cyanophenyl)acetamide,–
–,"Cc1nc2cc(OCC(O)CN3CCN(CC(=O)Nc4c(C)cccc4C)C(=O)C3)ccc2s1 (stereo not shown) [Compound 64, N-(2,6-dimethylphenyl)-2-{4-[2-hydroxy-3-(2-methyl-benzothiazol-5-yloxy)-propyl]-2-oxo-piperazin-1-yl}acetamide]","Inhibition of mitochondrial fatty acid oxidation using palmitoyl CoA as substrate - % of Control, 100 μm (%): 41%"
10 µM,"Cc1nc2cc(OC[C@H](O)CN3CCN(CC(=O)Nc4c(C)cccc4C)C[C@H]3C)ccc2s1 [2-{(3R)-4-[(2R)-2-hydroxy-3-(2-methylbenzothiazol-5-yloxy)propyl]-3-methylpiperazinyl}-N-(2,6-dimethylphenyl)acetamide]",–
–,"Cc1cccc(C)c1NC(=O)CN1CCN(CC(O)COc2ccc3oc(-c4cccc(C(F)(F)F)c4)nc3c2)CC1 (stereo not shown) [Compound 7, N-(2,6-dimethyl-phenyl)-2-(4-{2-hydroxy-3-[2-(3-trifluoromethylphenyl)benzoxazol-5-yloxy]-propyl}-piperazin-1-yl)acetamide]","Inhibition of mitochondrial fatty acid oxidation using palmitoyl CoA as substrate - % of Control, 50 μm (%): 77%"

Molecule,IC50 [1],further results
"Cc1nc2cc(OC[C@@H](O)CN3CCN(CC(=O)Nc4c(C)cccc4C)CC3)ccc2s1 [2-{4-[(2S)-2-hydroxy-3-(2-methylbenzothiazol-5-yloxy)propyl]piperazinyl}-N-(2,6-dimethylphenyl)acetamide]",8 µM,–
"Cc1nc2cc(OC[C@H](O)CN3CCN(CC(=O)Nc4c(C)cccc4C)CC3)ccc2s1 [2-{4-[(2R)-2-hydroxy-3-(2-methylbenzothiazol-5-yloxy)propyl]piperazinyl}-N-(2,6-dimethylphenyl)acetamide]",4 µM,–
